Converted amounts (≈) assume the structure as drawn.
How the values were obtained:
[1] = test system: phosphorylated p38 (TAK1 activity) in THP-1 cells; experiment: Cell-based p38 phosphorylation assay (Western blot)
Experimental: The cellular activity of example compounds 2, 3 and 9 and the comparative example (i.e. takinib) for inhibiting TAK1 activity was evaluated using an in vitro functional cell assay.
THP-1 cells were incubated at 37° C. in 5% CO2. THP-1 cells were cultured in RPMI 1640, 10% FBS, 1% Penicillin-Streptomycin.
THP-1 cells were treated with 100 nM phorbol 12-myristate 13-acetate (PMA) to induce macrophage differentiation and seeded at the density of 1×10^6 cells/well (2 ml/well in a 6-well plate) for 72 hours. The cell culture media was then replaced with PMA-free media and incubated for further 48 hours. Test compounds were prepared as 200×final assay concentration stocks in DMSO (final concentrations in the assay were 10-0.03 μM in 0.5% DMSO, details provided below). Following THP-1 cell differentiation, cells were treated with different concentrations of the control compound NG25 (CAS No.:1315355-93-1, Tan L, et al. J Med Chem. 2015, 58(1), 183-96) or test compounds (10 μl/well) for 30 minutes followed by 200 ng/ml LPS for 30 minutes.
Test items were kept as 10 mM stock solutions in 100% DMSO. The serial dilution of compounds was prepared as 200× serial dilutions of desired final concentration in […] to reach 0.5% DMSO working solution (see Table 3 below).
Dilution series of compounds from 10 μM final highest concentration to 0.03 μM final low concentration were first made in DMSO (see Table 3), 10 μl of each dilution was mixed into 2 ml of cell cultures (0.5% DMSO per well).
10 μl of DMSO was added to the control. All plates were incubated at 37° C., 5% CO2 for 30 minutes and LPS was added to a final concentration of 200 ng/ml.
For Western blot analysis, cells were lysed (50 mM Tris, 150 mM NaCl, 1 mM EDTA, 1% Triton-X100, 1 mM DTT, complete protease and PhosStop phosphatase inhibitor) after indicated treatment and run on NuPAGE Bis-Tris gel 4-12% gradient (Invitrogen). Following transfer to PVDF membrane and blocking in 5% BSA in PBST, membranes were incubated with primary antibody overnight (specific for phosphorylated p38; Cell Signaling, 1:1,000 dilution). After incubation with species-specific secondary antibodies for 1 hour at room temperature, the membranes were visualized with the ECL SuperSignal™ West Pico PLUS Chemiluminescent Substrate (Thermo Scientific). The images were captured with iBright Western Blot Imaging Systems (Invitrogen) and quantified with ImageJ software (Java-based image processing program developed at the National Institutes of Health and the Laboratory for Optical and Computational Instrumentation). Anti-β-actin antibodies were used as the loading control for whole-cell extracts in all samples (anti-β actin; Sigma-Aldrich, 1:5000 dilution, 1 hour incubation).
For immunoblotting, cells were lysed directly in six-well plates by incubating for 30 min at 4° C. in 60 μl Triton lysis buffer. The lysates were centrifuged for 15 minutes at 13,000×g at 4° C. Equal amount of protein from each supernatants were resuspended with 5× sample buffer. Samples were boiled for 10 minutes and then resolved by 4-12% SDS-PAGE (100 V). Proteins were transferred from gel to PVDF membranes ([…] pore size) following the recommended setting (90 minutes, 85 V). […]

[2] = pH 7.4
Experimental: The aqueous solubility of selected example compounds was determined as follows; 6 μL of DMSO stock solution of the selected example was added to 594 μL phosphate buffer (100 mM, pH 7.4). The resulting mixture was equilibrated over night (20-24 h, Alligator Shaker, room temperature). The mixture was then filtered (Millex LH 0.45 μm) and the concentration/solubility was determined by LC-UV quantification.

[3] = target: human recombinant TAK1-TAB1 Kinase (TAK1 (1-303) and TAB1 (437-end)) (Homo sapiens (Human), UniProt O43318); experiment: TAK1 biochemical ADP-Glo kinase assay; details: 10 μM ATP, MBP substrate; read-out: TAK1 Mean IC50 (nM) @ 10 μM ATP
Method in brief: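 Inhibition of human recombinant TAK1-TAB1 kinase was measured with a Promega ADP-Glo luminescence assay in 384-well plates. Compounds in 5% DMSO were pre-incubated 10 min with 2 μl TAK1-TAB1 (7.5 ng/μl) in buffer of Tris pH 7.5, MgCl2, DTT and BSA. MBP substrate and ATP were then added for 1 hour at room temperature. ADP-Glo reagent and kinase detection substrate followed, luminescence was read on an Envision, and IC50 came from non-linear regression.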

[4] = from COC(=O)c1cccc2nc(NC(=O)c3cccc(C(=O)O)c3)n(CCCCCN)c12; amide bond; 14-membered ring; HATU/DIEA; 16.0 h; 2 steps
[5] = from COC(=O)c1cccc2nc(NC(=O)c3cccc(C(=O)O)c3)n(C(C)CCCCN)c12; amide bond; 14-membered ring; HATU/TEA; dioxane; 2.2 mM; 25.0 °C; 16.0 h; 2 steps

human recombinant TAK1-TAB1 Kinase (TAK1 (1-303) and TAB1 (437-end)), sequence (O43318 other isoform, or with tags, fused parts or gaps): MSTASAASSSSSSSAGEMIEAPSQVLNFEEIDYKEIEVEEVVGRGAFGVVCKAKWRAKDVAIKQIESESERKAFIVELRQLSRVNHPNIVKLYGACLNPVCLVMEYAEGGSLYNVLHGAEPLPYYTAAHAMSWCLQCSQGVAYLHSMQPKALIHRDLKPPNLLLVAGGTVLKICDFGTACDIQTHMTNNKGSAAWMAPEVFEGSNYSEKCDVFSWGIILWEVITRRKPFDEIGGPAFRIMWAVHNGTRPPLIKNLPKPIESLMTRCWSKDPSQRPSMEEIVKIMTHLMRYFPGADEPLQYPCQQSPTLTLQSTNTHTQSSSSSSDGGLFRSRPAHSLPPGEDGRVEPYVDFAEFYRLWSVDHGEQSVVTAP

IC50 ([1]; PMA-differentiated THP-1 cells, compound 30 minutes then 200 ng/ml LPS 30 minutes, read-out: IC50 (nM) in phospho-p38 cell assay)	solubility [2]	IC50 [3]	Compound	potency and efficacy compared with Comparative Example 1 (takinib) ([1]; THP-1 cells, LPS, phospho-p38)	ring closure, crude yield [4]	ring closure, isolated yield [5]
600 nM	30.9 µM (≈ 17.8 µg/mL)	1 nM	CC1CCCCNC(=O)c2cccc(c2)C(=O)Nc2nc3cccc(C(=O)N4CCN(C(=O)OC(C)(C)C)CC4)c3n21 (stereo not shown) [Example 9, tert-butyl 4-(11-methyl-3,5-dioxo-1^1H-2,6-diaza-1(2,1)-benzo[d]imidazola-4(1,3)-benzenacycloundecaphane-1^7-carbonyl)piperazine-1-carboxylate]	greater	–	–
–	95.0 µM (≈ 37.3 µg/mL)	9 nM	O=C1NCCCCCn2c(nc3cccc(C(=O)O)c32)NC(=O)c2cccc1c2 [Example 18, (E)-3,5-dioxo-1^2,1^3-dihydro-1^1H-2,6-diaza-1(2,1)-benzo[d]imidazola-4(1,3)-benzenacycloundecaphane-1^7-carboxylic acid]	–	–	–
–	–	–	COC(=O)c1cccc2nc3n(c12)CCCCCNC(=O)c1cccc(c1)C(=O)N3	–	76%	–
–	0.9 µM (≈ 0.378 µg/mL)	4 nM	COC(=O)c1cccc2nc3n(c12)C(C)CCCCNC(=O)c1cccc(c1)C(=O)N3 (stereo not shown) [Example 7, methyl 11-methyl-3,5-dioxo-1^1H-2,6-diaza-1(2,1)-benzo[d]imidazola-4(1,3)-benzenacycloundecaphane-1^7-carboxylate]	–	–	21%
